ChEMBL document CHEMBL1909046, “DrugMatrix in vitro pharmacology data”

target: T1, 5-hydroxytryptamine receptor 2C (Homo sapiens, UniProt P28335); assay: DRUGMATRIX: Serotonin (5-Hydroxytryptamine) 5-HT2C radioligand binding (ligand: [3H] Mesulergine); type: cell membranes, CHO-K1, Membrane; details: cho-k1; Not Active = under 50% inhibition at 10 µM
T1 sequence (P28335 whole entry): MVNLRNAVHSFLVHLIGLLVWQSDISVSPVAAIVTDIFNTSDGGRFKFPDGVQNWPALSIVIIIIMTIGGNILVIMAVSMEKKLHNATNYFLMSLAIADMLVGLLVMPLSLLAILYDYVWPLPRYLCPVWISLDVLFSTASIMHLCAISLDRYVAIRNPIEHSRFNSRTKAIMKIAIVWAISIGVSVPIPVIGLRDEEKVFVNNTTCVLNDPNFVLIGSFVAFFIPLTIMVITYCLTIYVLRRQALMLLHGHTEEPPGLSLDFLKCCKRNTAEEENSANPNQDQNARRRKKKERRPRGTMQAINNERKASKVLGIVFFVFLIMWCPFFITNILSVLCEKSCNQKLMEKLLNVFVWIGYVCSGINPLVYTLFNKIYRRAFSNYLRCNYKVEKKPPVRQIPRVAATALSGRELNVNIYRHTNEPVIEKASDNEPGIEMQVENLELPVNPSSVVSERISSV

Compound | IC50 | Ki
Cc1ccc(C(=O)c2ccc(CC(=O)O)n2C)cc1 [TOLMETIN] | Not Active | –
CC(=O)OCC(COC(C)=O)OC(C)=O [TRIACETIN] | Not Active | –
CN1CCN(CCCN2c3ccccc3Sc3ccc(C(F)(F)F)cc32)CC1 [TRIFLUOPERAZINE] | Not Active | –
TRANSPLATIN | Not Active | Not Active

target: T2, Substance-K receptor (Homo sapiens, UniProt P21452); type: cell membranes, CHO, Membrane; details: cho; note: in other assays of this panel Not Active means under 50% inhibition at 10 µM
T2 sequence (P21452 whole entry): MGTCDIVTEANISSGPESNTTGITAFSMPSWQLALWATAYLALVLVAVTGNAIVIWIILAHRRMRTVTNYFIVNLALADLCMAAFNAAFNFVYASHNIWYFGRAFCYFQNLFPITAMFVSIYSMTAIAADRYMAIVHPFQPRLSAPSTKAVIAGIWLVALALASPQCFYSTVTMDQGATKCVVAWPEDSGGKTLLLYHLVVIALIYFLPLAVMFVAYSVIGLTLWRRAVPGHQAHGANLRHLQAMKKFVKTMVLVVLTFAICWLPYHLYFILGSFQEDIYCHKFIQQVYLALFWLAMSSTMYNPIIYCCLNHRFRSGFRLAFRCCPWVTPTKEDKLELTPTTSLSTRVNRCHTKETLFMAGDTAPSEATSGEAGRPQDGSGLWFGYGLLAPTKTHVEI

Compound | IC50 | Ki
CN1CCN(C2=Nc3cc(Cl)ccc3Nc3ccccc32)CC1 [CLOZAPINE] | Not Active | –
CC(C)NC[C@H](O)COc1cccc2ccccc12 [LEVOPROPRANOLOL] | Not Active | –
OCCOCCN1CCN(C2=Nc3ccccc3Sc3ccccc32)CC1 [QUETIAPINE] | Not Active | –
Cc1ccc(C(=O)c2ccc(CC(=O)O)n2C)cc1 [TOLMETIN] | Not Active | –
CC(=O)OCC(COC(C)=O)OC(C)=O [TRIACETIN] | Not Active | –
CN1CCN(CCCN2c3ccccc3Sc3ccc(C(F)(F)F)cc32)CC1 [TRIFLUOPERAZINE] | Not Active | –
TRANSPLATIN | Not Active | Not Active

target: C-C chemokine receptor type 2 (Homo sapiens, UniProt P41597); type: cell membranes, Membrane; details: cho-k1; note: in other assays of this panel Not Active means under 50% inhibition at 10 µM
Sequence (P41597 whole entry): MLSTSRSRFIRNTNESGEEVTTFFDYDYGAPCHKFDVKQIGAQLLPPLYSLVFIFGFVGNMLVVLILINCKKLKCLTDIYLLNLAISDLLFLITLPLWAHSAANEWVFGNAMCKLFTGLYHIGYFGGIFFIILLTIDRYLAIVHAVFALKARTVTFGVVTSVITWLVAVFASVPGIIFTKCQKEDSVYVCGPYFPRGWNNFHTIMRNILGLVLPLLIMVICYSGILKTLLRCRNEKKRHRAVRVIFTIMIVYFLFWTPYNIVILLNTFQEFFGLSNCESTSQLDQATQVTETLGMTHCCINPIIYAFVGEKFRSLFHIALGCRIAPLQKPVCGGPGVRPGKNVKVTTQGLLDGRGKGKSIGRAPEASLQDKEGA

Compound | IC50 | Ki
CN1CCN(C2=Nc3cc(Cl)ccc3Nc3ccccc32)CC1 [CLOZAPINE] | Not Active | –
CC(C)NC[C@H](O)COc1cccc2ccccc12 [LEVOPROPRANOLOL] | Not Active | –
OCCOCCN1CCN(C2=Nc3ccccc3Sc3ccccc32)CC1 [QUETIAPINE] | Not Active | –
Cc1ccc(C(=O)c2ccc(CC(=O)O)n2C)cc1 [TOLMETIN] | Not Active | –
CC(=O)OCC(COC(C)=O)OC(C)=O [TRIACETIN] | Not Active | –
CN1CCN(CCCN2c3ccccc3Sc3ccc(C(F)(F)F)cc32)CC1 [TRIFLUOPERAZINE] | Not Active | –
TRANSPLATIN | Not Active | Not Active

target: T3, C-X-C chemokine receptor type 2 (Homo sapiens, UniProt P25025); type: cell membranes, Membrane; details: cho-k1; note: in other assays of this panel Not Active means under 50% inhibition at 10 µM
T3 sequence (P25025 whole entry): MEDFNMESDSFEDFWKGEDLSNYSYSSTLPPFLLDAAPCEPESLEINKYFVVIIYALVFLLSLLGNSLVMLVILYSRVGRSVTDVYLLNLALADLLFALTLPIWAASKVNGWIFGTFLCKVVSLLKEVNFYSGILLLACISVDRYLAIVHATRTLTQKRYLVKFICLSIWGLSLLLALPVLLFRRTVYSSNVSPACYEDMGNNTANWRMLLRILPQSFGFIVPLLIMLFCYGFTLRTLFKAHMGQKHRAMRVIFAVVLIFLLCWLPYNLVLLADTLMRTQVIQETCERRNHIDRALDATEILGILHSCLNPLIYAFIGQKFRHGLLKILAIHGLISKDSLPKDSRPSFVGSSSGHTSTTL

Compound | IC50 | Ki
CN1CCN(C2=Nc3cc(Cl)ccc3Nc3ccccc32)CC1 [CLOZAPINE] | Not Active | –
CC(C)NC[C@H](O)COc1cccc2ccccc12 [LEVOPROPRANOLOL] | Not Active | –
OCCOCCN1CCN(C2=Nc3ccccc3Sc3ccccc32)CC1 [QUETIAPINE] | Not Active | –
Cc1ccc(C(=O)c2ccc(CC(=O)O)n2C)cc1 [TOLMETIN] | Not Active | –
CC(=O)OCC(COC(C)=O)OC(C)=O [TRIACETIN] | Not Active | –
CN1CCN(CCCN2c3ccccc3Sc3ccc(C(F)(F)F)cc32)CC1 [TRIFLUOPERAZINE] | Not Active | –
TRANSPLATIN | Not Active | Not Active

target: T4, Cysteinyl leukotriene receptor 1 (Homo sapiens, UniProt Q9Y271); type: cell membranes, Membrane; details: cho-k1; note: in other assays of this panel Not Active means under 50% inhibition at 10 µM
T4 sequence (Q9Y271 whole entry): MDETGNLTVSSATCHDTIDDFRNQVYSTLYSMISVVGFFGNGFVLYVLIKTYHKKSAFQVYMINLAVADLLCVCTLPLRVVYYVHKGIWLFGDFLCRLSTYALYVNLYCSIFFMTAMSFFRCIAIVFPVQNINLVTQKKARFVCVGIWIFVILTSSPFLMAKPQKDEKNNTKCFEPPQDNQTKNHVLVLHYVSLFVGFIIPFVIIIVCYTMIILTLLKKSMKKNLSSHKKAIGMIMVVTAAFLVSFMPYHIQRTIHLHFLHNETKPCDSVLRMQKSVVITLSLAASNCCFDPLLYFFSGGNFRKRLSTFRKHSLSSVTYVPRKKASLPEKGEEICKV

Compound | IC50 | Ki
CN1CCN(C2=Nc3cc(Cl)ccc3Nc3ccccc32)CC1 [CLOZAPINE] | Not Active | –
CC(C)NC[C@H](O)COc1cccc2ccccc12 [LEVOPROPRANOLOL] | Not Active | –
OCCOCCN1CCN(C2=Nc3ccccc3Sc3ccccc32)CC1 [QUETIAPINE] | Not Active | –
Cc1ccc(C(=O)c2ccc(CC(=O)O)n2C)cc1 [TOLMETIN] | Not Active | –
CC(=O)OCC(COC(C)=O)OC(C)=O [TRIACETIN] | Not Active | –
CN1CCN(CCCN2c3ccccc3Sc3ccc(C(F)(F)F)cc32)CC1 [TRIFLUOPERAZINE] | Not Active | –
TRANSPLATIN | Not Active | Not Active

target: cGMP-specific 3',5'-cyclic phosphodiesterase (Homo sapiens, UniProt O76074); assay: DRUGMATRIX: Phosphodiesterase PDE5 enzyme inhibition (substrate: [3H]cGMP + cGMP); type: tissue-based, Platelet; details: platelet; Not Active = under 50% inhibition at 10 µM

Compound | IC50 | Ki
CN1CCN(C2=Nc3cc(Cl)ccc3Nc3ccccc32)CC1 [CLOZAPINE] | Not Active | –
CC(C)NC[C@H](O)COc1cccc2ccccc12 [LEVOPROPRANOLOL] | Not Active | –
OCCOCCN1CCN(C2=Nc3ccccc3Sc3ccccc32)CC1 [QUETIAPINE] | Not Active | –
Cc1ccc(C(=O)c2ccc(CC(=O)O)n2C)cc1 [TOLMETIN] | Not Active | –
CC(=O)OCC(COC(C)=O)OC(C)=O [TRIACETIN] | Not Active | –
CN1CCN(CCCN2c3ccccc3Sc3ccc(C(F)(F)F)cc32)CC1 [TRIFLUOPERAZINE] | Not Active | –
TRANSPLATIN | Not Active | Not Active

target: Acetylcholinesterase (Homo sapiens, UniProt P22303); assay: DRUGMATRIX: Acetylcholinesterase enzyme inhibition (substrate: acetylthiocholine); type: cell-based, HEK293; details: hek293; Not Active = under 50% inhibition at 10 µM
Sequence (P22303 whole entry): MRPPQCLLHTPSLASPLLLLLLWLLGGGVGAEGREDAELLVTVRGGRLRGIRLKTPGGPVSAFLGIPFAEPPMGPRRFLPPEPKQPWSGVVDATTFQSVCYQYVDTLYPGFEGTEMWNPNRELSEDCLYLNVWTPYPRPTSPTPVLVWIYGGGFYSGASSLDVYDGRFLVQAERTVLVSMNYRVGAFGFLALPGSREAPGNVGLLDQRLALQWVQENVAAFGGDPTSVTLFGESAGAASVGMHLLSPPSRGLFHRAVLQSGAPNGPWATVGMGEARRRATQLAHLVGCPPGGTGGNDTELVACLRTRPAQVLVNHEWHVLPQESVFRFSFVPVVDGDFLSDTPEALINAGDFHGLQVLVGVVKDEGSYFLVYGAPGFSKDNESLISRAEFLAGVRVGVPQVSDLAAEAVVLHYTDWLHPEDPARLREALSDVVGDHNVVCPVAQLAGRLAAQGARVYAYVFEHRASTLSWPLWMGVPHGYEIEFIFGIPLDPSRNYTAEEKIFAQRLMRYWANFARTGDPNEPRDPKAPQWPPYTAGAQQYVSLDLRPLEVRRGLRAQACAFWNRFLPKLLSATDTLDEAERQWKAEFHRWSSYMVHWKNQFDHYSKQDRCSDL

Compound | IC50 | Ki
CN1CCN(C2=Nc3cc(Cl)ccc3Nc3ccccc32)CC1 [CLOZAPINE] | Not Active | –
CC(C)NC[C@H](O)COc1cccc2ccccc12 [LEVOPROPRANOLOL] | Not Active | –
OCCOCCN1CCN(C2=Nc3ccccc3Sc3ccccc32)CC1 [QUETIAPINE] | Not Active | –
Cc1ccc(C(=O)c2ccc(CC(=O)O)n2C)cc1 [TOLMETIN] | Not Active | –
CC(=O)OCC(COC(C)=O)OC(C)=O [TRIACETIN] | Not Active | –
CN1CCN(CCCN2c3ccccc3Sc3ccc(C(F)(F)F)cc32)CC1 [TRIFLUOPERAZINE] | Not Active | –
TRANSPLATIN | Not Active | Not Active
